Drawing on US11111237B2, “Bicyclic compound and use thereof” (SK BIOPHARMACEUTICALS CO., LTD., priority 2019, dated 2021), this text covers IC50 for 28 compounds.

The target of the experiment is PRMT5-MEP50 enzyme complex (Homo sapiens (Human), UniProt O14744). Description: PRMT5 enzyme activity in vitro assay (methylation of histone H4R3, ELISA absorbance at 450 nm). The experiment is classed as biochemical. The following applies: SAM, histone H4 peptide, room temperature 2 hours, 8 points from 10 μM to 0.128 nM. The essentials: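 IC50 was derived from ELISA absorbance at 450 nm, using primary and HRP antibodies against H4R3 methylation on immobilised histone H4 peptide (residues 1-20). Compounds (10 μM to 0.128 nM, 8 points, 1:5) were incubated 2 h at room temperature with the PRMT5-MEP50 complex and SAM, diluted to 5 μg/mL and 2 μM respectively.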
Sequence of PRMT5-MEP50 enzyme complex (O14744 2-637): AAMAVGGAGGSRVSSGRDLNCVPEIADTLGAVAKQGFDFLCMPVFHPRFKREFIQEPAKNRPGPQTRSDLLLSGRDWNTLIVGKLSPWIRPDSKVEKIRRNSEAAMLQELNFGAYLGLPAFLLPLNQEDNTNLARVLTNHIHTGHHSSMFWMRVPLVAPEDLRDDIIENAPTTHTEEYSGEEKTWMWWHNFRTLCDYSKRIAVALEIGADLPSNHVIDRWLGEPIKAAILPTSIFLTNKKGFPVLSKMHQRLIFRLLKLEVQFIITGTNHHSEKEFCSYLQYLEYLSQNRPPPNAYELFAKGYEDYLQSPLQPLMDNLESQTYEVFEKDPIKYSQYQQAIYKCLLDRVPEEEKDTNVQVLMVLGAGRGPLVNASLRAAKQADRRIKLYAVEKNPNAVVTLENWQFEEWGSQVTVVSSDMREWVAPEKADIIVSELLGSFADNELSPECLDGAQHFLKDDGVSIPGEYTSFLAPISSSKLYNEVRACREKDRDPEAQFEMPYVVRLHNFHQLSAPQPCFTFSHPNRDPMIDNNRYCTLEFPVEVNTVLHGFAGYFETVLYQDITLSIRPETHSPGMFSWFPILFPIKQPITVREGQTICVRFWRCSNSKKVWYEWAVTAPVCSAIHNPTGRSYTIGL
Sequence of PRMT5-MEP50 enzyme complex (Q9BQA1 2-342 partner): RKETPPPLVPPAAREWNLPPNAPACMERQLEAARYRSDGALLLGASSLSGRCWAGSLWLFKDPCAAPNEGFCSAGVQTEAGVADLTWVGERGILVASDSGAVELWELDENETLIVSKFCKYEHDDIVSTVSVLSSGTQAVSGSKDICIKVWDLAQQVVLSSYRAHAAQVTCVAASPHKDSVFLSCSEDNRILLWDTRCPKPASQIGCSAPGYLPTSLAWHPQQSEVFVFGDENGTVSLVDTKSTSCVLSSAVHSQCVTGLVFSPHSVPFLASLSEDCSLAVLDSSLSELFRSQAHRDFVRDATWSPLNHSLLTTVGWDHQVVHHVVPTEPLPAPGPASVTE
Background: An ELISA detects its analyte on a solid surface through an enzyme-linked reagent.
The term IC50 denotes the concentration that inhibits the measured activity by half. A higher IC50 goes with a need for much substance. For the compound `CN(CCF)C1CCC(Oc2ccc3c(c2)OCCN(C[C@H](O)CN2CCc4ccccc4C2)C3=O)CC1` (stereo partly drawn) [Example 199, 4-[(2R)-3-(3,4-dihydro-1H-isoquinolin-2-yl)-2-hydroxypropyl]-8-[4-[2-fluoroethyl(methyl)amino]cyclohexoxy]-2,3-dihydro-1,4-benzoxazepin-5-one], the IC50 lay in the range of 1 to 100 nM.
The value for `C[C@H]1CN(C[C@H](O)CN2CCc3ccccc3C2)C(=O)c2ccc(OC3CN(CCF)C3)cc2O1` [Example 201, (2S)-4-[(2R)-3-(3,4-dihydro-1H-isoquinolin-2-yl)-2-hydroxy-propyl]-8-[1-(2-fluoroethyl)azetidin-3-yl]oxy-2-methyl-2,3-dihydro-1,4-benzoxazepin-5-one] was 100 to 1000 nM; that for `C[C@H]1CN(C[C@H](O)CN2CCc3ccccc3C2)C(=O)c2ccc(OC3CCN(CCF)CC3)cc2O1` [Example 202, (2S)-4-[(2R)-3-(3,4-dihydro-1H-isoquinolin-2-yl)-2-hydroxy-propyl]-8-[1-(2-fluoroethyl)-4-piperidyl]oxy-2-methyl-2,3-dihydro-1,4-benzoxazepin-5-one] was 1 to 100 nM.
`CC1(C)CN(C[C@H](O)CN2CCc3ccccc3C2)C(=O)c2ccc(C(=O)N3C4CCC3COC4)cc2O1` [Example 203, 4-[(2R)-3-(3,4-dihydro-1H-isoquinolin-2-yl)-2-hydroxy-propyl]-2,2-dimethyl-8-(3-oxa-8-azabicyclo[3.2.1]octan-8-carbonyl)-3H-1,4-benzoxazepin-5-one] gave an IC50 of 100 to 1000 nM.
As to `CC1(C)CN(C[C@H](O)CN2CCc3ccccc3C2)C(=O)c2ccc(C(=O)N3CC4CC3CO4)cc2O1` (stereo partly drawn) [Example 204, 4-[(2R)-3-(3,4-dihydro-1H-isoquinolin-2-yl)-2-hydroxy-propyl]-2,2-dimethyl-8-(2-oxa-5-azabicyclo[2.2.1]heptan-5-carbonyl)-3H-1,4-benzoxazepin-5-one], the IC50 was in the range of 100 to 1000 nM.
The value for `CC1COCC(C)N1C(=O)c1ccc2c(c1)OC(C)(C)CN(C[C@H](O)CN1CCc3ccccc3C1)C2=O` (stereo partly drawn) [Example 205, 4-[(2R)-3-(3,4-dihydro-1H-isoquinolin-2-yl)-2-hydroxy-propyl]-8-(3,5-dimethylmorpholin-4-carbonyl)-2,2-dimethyl-3H-1,4-benzoxazepin-5-one] was 100 to 1000 nM.
Compound `CN1CCC(Oc2ccc3c(c2)OCCN(C[C@H](O)CN2CCc4ccccc4C2)C3=O)C(F)C1` (stereo partly drawn) [Example 206, 4-[(2R)-3-(3,4-dihydro-1H-isoquinolin-2-yl)-2-hydroxy-propyl]-8-[(3-fluoro-1-methyl-4-piperidyl)oxy]-2,3-dihydro-1,4-benzoxazepin-5-one] showed an IC50 of 100 to 1000 nM.
For `O=C1c2ccc(OC3CCN(CCF)CC3F)cc2OCCN1C[C@H](O)CN1CCc2ccccc2C1` (stereo partly drawn) [Example 207, 4-[(2R)-3-(3,4-dihydro-1H-isoquinolin-2-yl)-2-hydroxy-propyl]-8-[[3-fluoro-1-(2-fluoroethyl)-4-piperidyl]oxy]-2,3-dihydro-1,4-benzoxazepin-5-one] the value was 100 to 1000 nM.
The value for `O=C1c2ccc(OC3CCN(CCO)CC3F)cc2OCCN1C[C@H](O)CN1CCc2ccccc2C1` (stereo partly drawn) [Example 208, 4-[(2R)-3-(3,4-dihydro-1H-isoquinolin-2-yl)-2-hydroxy-propyl]-8-[[3-fluoro-1-(2-hydroxyethyl)-4-piperidyl]oxy]-2,3-dihydro-1,4-benzoxazepin-5-one] was 100 to 1000 nM; that for `CC1(C)CN(C[C@H](O)CN2CCc3ccccc3C2)C(=O)c2ccc(C(=O)N3CCn4cccc4C3)cc2O1` [Example 209, 4-[(2R)-3-(3,4-dihydro-1H-isoquinolin-2-yl)-2-hydroxy-propyl]-8-(3,4-dihydro-1H-pyrrolo[1,2-a]pyrazine-2-carbonyl)-2,2-dimethyl-3H-1,4-benzoxazepin-5-one] was 100 to 1000 nM.
For `CC1(C)CN(C[C@H](O)CN2CCc3ccccc3C2)C(=O)c2ccc(C(=O)N3CCN4CCCC4C3)cc2O1` (stereo partly drawn) [Example 210, 8-(3,4,6,7,8,8a-hexahydro-1H-pyrrolo[1,2-a]pyrazine-2-carbonyl)-4-[(2R)-3-(3,4-dihydro-1H-isoquinolin-2-yl)-2-hydroxy-propyl]-2,2-dimethyl-3H-1,4-benzoxazepin-5-one] the value was 100 to 1000 nM.
Turning to `O=C1c2ccc(Oc3ncc(F)cn3)cc2OCCN1C[C@H](O)CN1CCc2ccccc2C1` [Example 211, 4-[(2R)-3-(3,4-dihydro-1H-isoquinolin-2-yl)-2-hydroxy-propyl]-8-(5-fluoropyrimidin-2-yl)oxy-2,3-dihydro-1,4-benzoxazepin-5-one], the IC50 fell in the range of 100 to 1000 nM.
The value for `CC(O)CN1CCC(Oc2ccc3c(c2)OCCN(C[C@H](O)CN2CCc4ccccc4C2)C3=O)CC1` (stereo partly drawn) [Example 212, 4-[(2R)-3-(3,4-dihydro-1H-isoquinolin-2-yl)-2-hydroxy-propyl]-8-[[1-(2-hydroxypropyl)-4-piperidyl]oxy]-2,3-dihydro-1,4-benzoxazepin-5-one] was 100 to 1000 nM; that for `CN1CCC[C@H](Oc2ccc3c(c2)OCCN(C[C@H](O)CN2CCc4ccccc4C2)C3=O)C1` [Example 213, 4-[(2R)-3-(3,4-dihydro-1H-isoquinolin-2-yl)-2-hydroxy-propyl]-8-[(1-methyl-3-piperidyl)oxy]-2,3-dihydro-1,4-benzoxazepin-5-one] was 100 to 1000 nM; that for `CCC(=O)c1ccc2c(c1)OCCN(C[C@H](O)CN1CCc3ccccc3C1)C2=O` [Example 214, 4-[(2R)-3-(3,4-dihydro-1H-isoquinolin-2-yl)-2-hydroxy-propyl]-8-propanoyl-2,3-dihydro-1,4-benzoxazepin-5-one] was 100 to 1000 nM.
For `O=C1c2ccc(OC3CC4CCC(C3)N4CCF)cc2OCCN1C[C@H](O)CN1CCc2ccccc2C1` (stereo partly shown) [Example 215] the value was 100 to 1000 nM.
For `O=C(c1ccc2c(c1)OCCN(C[C@H](O)CN1CCc3ccccc3C1)C2=O)C1CC1` [Example 216, 8-(cyclopropanecarbonyl)-4-[(2R)-3-(3,4-dihydro-1H-isoquinolin-2-yl)-2-hydroxy-propyl]-2,3-dihydro-1,4-benzoxazepin-5-one] the value was 1 to 100 nM; for `O=C(c1ccc2c(c1)OCCN(C[C@H](O)CN1CCc3ccccc3C1)C2=O)C1CCCC1` [Example 217, 8-(cyclopentanecarbonyl)-4-[(2R)-3-(3,4-dihydro-1H-isoquinolin-2-yl)-2-hydroxy-propyl]-2,3-dihydro-1,4-benzoxazepin-5-one], 100 to 1000 nM.
Turning to `CN1CCC[C@@H](Oc2ccc3c(c2)OCCN(C[C@H](O)CN2CCc4ccccc4C2)C3=O)C1` [Example 218, 4-[(2R)-3-(3,4-dihydro-1H-isoquinolin-2-yl)-2-hydroxypropyl]-8-[(1-methyl-3-piperidyl)oxy]-2,3-dihydro-1,4-benzoxazepin-5-one], the IC50 fell in the range of 100 to 1000 nM.
The value for `C[C@@H]1CN(C[C@H](O)CN2CCc3ccccc3C2)C(=O)c2ccc(OC3CCN(CCO)CC3)cc2O1` [Example 219, (2R)-4-[(2R)-3-(3,4-dihydro-1H-isoquinolin-2-yl)-2-hydroxy-propyl]-8-[[1-(2-hydroxyethyl)-4-piperidyl]oxy]-2-methyl-2,3-dihydro-1,4-benzoxazepin-5-one] was 1 to 100 nM; that for `C[C@@H]1CN(C[C@H](O)CN2CCc3ccccc3C2)C(=O)c2ccc(OC3CCN(CC(C)(C)O)CC3)cc2O1` [Example 220, (2R)-4-[(2R)-3-(3,4-dihydro-1H-isoquinolin-2-yl)-2-hydroxy-propyl]-8-[[1-(2-hydroxy-2-methyl-propyl)-4-piperidyl]oxy]-2-methyl-2,3-dihydro-1,4-benzoxazepin-5-one] was 100 to 1000 nM; that for `CC(c1ccc2c(c1)OCCN(C[C@H](O)CN1CCc3ccccc3C1)C2=O)N1CCOCC1` (stereo partly drawn) [Example 221, 4-[(2R)-3-(3,4-dihydro-1H-isoquinolin-2-yl)-2-hydroxy-propyl]-8-(1-morpholinoethyl)-2,3-dihydro-1,4-benzoxazepin-5-one] was 100 to 1000 nM.
For `CC(c1ccc2c(c1)OCCN(C[C@H](O)CN1CCc3ccccc3C1)C2=O)N1CC2(COC2)C1` (stereo partly drawn) [Example 222, 4-[(2R)-3-(3,4-dihydro-1H-isoquinolin-2-yl)-2-hydroxy-propyl]-8-[1-(2-oxa-6-azaspiro[3.3]heptan-6-yl)ethyl]-2,3-dihydro-1,4-benzoxazepin-5-one] the value was 100 to 1000 nM; for `O=C1c2ccc(C#CCO)cc2OCCN1C[C@H](O)CN1CCc2ccccc2C1` [Example 223, 4-[(2R)-3-(3,4-dihydro-1H-isoquinolin-2-yl)-2-hydroxy-propyl]-8-(3-hydroxypro-1-pynyl)-2,3-dihydro-1,4-benzoxazepin-5-one], 100 to 1000 nM.
The compound `COCCN1CCC(Oc2ccc3c(c2)O[C@H](C)CN(C[C@H](O)CN2CCc4ccccc4C2)C3=O)CC1` [Example 224, (2R)-4-[(2R)-3-(3,4-dihydro-1H-isoquinolin-2-yl)-2-hydroxy-propyl]-8-[[1-(2-methoxyethyl)-4-piperidyl]oxy]-2-methyl-2,3-dihydro-1,4-benzoxazepin-5-one] returned an IC50 of 100 to 1000 nM.
The value for `O=C1c2ccc(-c3ccncc3)cc2OCCN1C[C@H](O)CN1CCc2ccccc2C1` [Example 225, 4-[(2R)-3-(3,4-dihydro-1H-isoquinolin-2-yl)-2-hydroxy-propyl]-8-(4-pyridyl)-2,3-dihydro-1,4-benzoxazepin-5-one] was 100 to 1000 nM.
For `O=C1c2ccc(C#Cc3ccncc3)cc2OCCN1C[C@H](O)CN1CCc2ccccc2C1` [Example 226, 4-[(2R)-3-(3,4-dihydro-1H-isoquinolin-2-yl)-2-hydroxy-propyl]-8-[2-(4-pyridyl)ethynyl]-2,3-dihydro-1,4-benzoxazepin-5-one] the value was 1 to 100 nM; for `O=C1c2ccc(C#Cc3cccnc3)cc2OCCN1C[C@H](O)CN1CCc2ccccc2C1` [Example 227, 4-[(2R)-3-(3,4-dihydro-1H-isoquinolin-2-yl)-2-hydroxy-propyl]-8-[2-(3-pyridyl)ethynyl]-2,3-dihydro-1,4-benzoxazepin-5-one], 1 to 100 nM.
